Reference: patent publication US7605265B2, “Heterodimers and methods of using them” (priority 2007, dated 2009)

Assays:
[1] = molecular target: T1, acetylcholinesterase (AChE) (Rattus norvegicus, UniProt P37136); experiment: In vitro inhibition of AChE (cholinesterase assay, Ellman method); assay type: biochemical
T1 construct: from tissue; host or cells: rat brain cortex
T1 sequence (P37136 32-614): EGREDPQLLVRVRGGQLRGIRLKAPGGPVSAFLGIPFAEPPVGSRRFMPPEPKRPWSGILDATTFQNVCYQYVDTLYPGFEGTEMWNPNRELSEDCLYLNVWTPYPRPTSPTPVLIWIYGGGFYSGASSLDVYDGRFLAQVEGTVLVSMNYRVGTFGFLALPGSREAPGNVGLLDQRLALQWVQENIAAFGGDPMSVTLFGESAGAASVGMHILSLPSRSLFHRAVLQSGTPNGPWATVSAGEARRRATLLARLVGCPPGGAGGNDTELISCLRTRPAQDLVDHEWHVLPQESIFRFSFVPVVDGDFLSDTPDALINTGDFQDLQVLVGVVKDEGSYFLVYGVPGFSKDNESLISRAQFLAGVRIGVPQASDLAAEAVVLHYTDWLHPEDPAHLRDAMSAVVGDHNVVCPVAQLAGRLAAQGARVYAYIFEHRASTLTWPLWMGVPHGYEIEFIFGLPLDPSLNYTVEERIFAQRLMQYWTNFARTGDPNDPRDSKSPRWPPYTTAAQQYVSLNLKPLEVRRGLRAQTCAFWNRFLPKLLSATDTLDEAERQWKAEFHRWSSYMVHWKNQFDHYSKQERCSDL
Description: The in vitro inhibition of the enzymes acetylcholinesterase (AChE) and butyrylcholinesterase (BChE) were assessed. BChE, like AChE, breaks down acetylcholine (ACh) but is found in plasma and other organs such as the liver, skin and gastrointestinal tract.
The enzymes, AChE and BChE, used in the inhibition studies were prepared from the cortex and serum of decapitated rats, respectively.

[2] = molecular target: T2, butyrylcholinesterase (BChE) (Rattus norvegicus, UniProt Q9JKC1); experiment: biochemical
T2 construct: from tissue; host or cells: rat serum

[3] = test system: scopolamine-induced memory impaired rats; experiment: Morris water maze, scopolamine-induced memory impairment; assay type: in vivo, rat; details: tacrine 1.5 mg/kg, scopolamine 0.1 mg/kg i.p.
Description: The Morris water maze consists of a water pool with a hidden, submerged escape platform. The rats must learn, over a period of consecutive days, the location of the platform using either contextual or local cues. The time taken to locate the hidden platform (escape latency) is a measure of the animal's cognitive abilities.
(§1) Scopolamine (0.1 mg/kg) was first i.p. administered to young adult rats to impair their memories. Scopolamine-induced memory impaired rats were then orally administered one of three different doses of compound B (0.025, 0.050, or 0.100 mg/kg) and subjected to the Morris water maze over a period of 4 days. On each day, the time taken for the rats to detect the hidden platform in the water maze was measured, in seconds.
as §1, with “C (0.1, 0.2,” for “B (0.025, 0.050,”, “0.4” for “0.100”
as §1, with “A (0.1, 0.2,” for “B (0.025, 0.050,”, “0.4” for “0.100”
A spatial bias (% of total distance swum in the training quadrant during spatial probe trial) for the region of the apparatus where the platform was positioned during training was also measured for compounds B and C.
The spatial bias for the region of the testing apparatus where the hidden platform was positioned during training was measured. […] Tacrine (THA) was included for comparison purposes.

T2 sequence (Q9JKC1 24-597): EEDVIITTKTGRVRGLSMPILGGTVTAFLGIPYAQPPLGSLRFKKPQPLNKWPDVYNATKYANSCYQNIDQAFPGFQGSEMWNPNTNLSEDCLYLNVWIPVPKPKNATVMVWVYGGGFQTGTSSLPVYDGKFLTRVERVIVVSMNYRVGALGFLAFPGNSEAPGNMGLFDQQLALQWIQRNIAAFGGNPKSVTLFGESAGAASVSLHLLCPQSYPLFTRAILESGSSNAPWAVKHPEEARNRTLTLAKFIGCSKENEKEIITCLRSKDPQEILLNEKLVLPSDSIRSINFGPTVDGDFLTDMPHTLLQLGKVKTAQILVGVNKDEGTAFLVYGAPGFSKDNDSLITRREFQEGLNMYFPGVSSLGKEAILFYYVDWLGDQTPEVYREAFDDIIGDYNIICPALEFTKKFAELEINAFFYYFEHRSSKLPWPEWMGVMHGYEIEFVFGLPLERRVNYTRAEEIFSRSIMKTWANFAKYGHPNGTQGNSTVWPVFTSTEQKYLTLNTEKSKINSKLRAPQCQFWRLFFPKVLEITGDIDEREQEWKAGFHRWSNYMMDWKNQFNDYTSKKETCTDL

**Q.** `O=c1ccc2c([nH]1)CCCC2NCCCCCCCCNc1c2c(nc3ccccc13)CCCC2` (stereo not shown) [Compound D] was tested. Which “Selectivity AchE*” value ([1]; IC50 (BChE)/IC50 (AChE)) did it give?
**A.** 31.52

**Q.** What about the IC50 ([1]; enzyme prepared from rat cortex) of the same molecule?
**A.** 13.6 ± 1.76 nM

**Q.** And the IC50 [2]?
**A.** 430 ± 46.7 nM

**Q.** Which “escape latency, compared with the novel compound” value [3] does the source give for `Nc1c2c(nc3ccccc13)CCCC2` [Tacrine, reference compound] here?
**A.** less effective in shortening escape latency
